The values below come from ChEMBL document CHEMBL1201862, “PubChem BioAssay data set” (2004).

By EC50 is commonly meant the concentration needed to bring the measured effect to its halfway point. For orientation: AC50 means the concentration at which the activity in the assay is half-maximal.

Test [1] has as its target T1, Streptokinase A (Streptococcus pyogenes serotype M1, UniProt P10520).
T1 sequence (P10520 whole entry): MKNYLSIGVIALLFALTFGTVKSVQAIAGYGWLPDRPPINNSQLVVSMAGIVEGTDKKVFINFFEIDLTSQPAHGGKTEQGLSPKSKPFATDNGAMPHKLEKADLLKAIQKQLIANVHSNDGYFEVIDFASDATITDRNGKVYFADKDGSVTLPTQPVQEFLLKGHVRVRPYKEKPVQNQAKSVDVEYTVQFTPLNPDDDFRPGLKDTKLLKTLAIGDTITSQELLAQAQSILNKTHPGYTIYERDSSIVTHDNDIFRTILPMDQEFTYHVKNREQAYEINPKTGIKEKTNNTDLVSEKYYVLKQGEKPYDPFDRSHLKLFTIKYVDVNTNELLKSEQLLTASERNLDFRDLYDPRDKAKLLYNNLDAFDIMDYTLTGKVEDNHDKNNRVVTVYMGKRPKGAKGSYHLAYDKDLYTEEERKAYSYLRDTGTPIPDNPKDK
The test can be described thus: viability-normalized secreted streptokinase activity reduction – plasminogen activation absorbance, OD405, dose response (AID 1914).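 Further: secreted streptokinase activity via plasminogen activation per viability signal from cell pellet.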 The format is functional, Streptococcus pyogenes M1 GAS.

Test [2] concerns Streptococcus sp. 'group A'. The test can be described thus: Streptococcus pyogenes SK(-)GAS viability under kanamycin – luminescence, BacTiterGlo, confirmation, counter-screen for streptokinase expression inhibitor project, dose response (AID 1900). The format is functional, organism-based. Background: Counterscreens check selectivity or assay interference.
Test [3] relates to Streptococcus. Description: GAS UMAA2166 growth inhibition – luminescence, BacTiterGlo, counter-screen for streptokinase expression inhibitor project, dose response (AID 1915).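 Further: potency for reduction of bacterial viability or growth.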 It counts as functional, organism-based.
Test [4] can be described thus: Luminescence Cell-Based Dose Retest to Confirm Inhibitors of Cancer Stem Cells. [Related pubchem assays (depositor defined):AID2717, AID2721]. The format is functional. The settings on record: Homo sapiens.
A short description of test [5]: Trypanosoma cruzi growth suppression in host cells – NIH3T3 host cells, beta-gal luminescence, confirmation (AID 2044).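 Further: intracellular parasites grown in NIH/3T3 mouse fibroblasts as host cells; luminescent beta-galactosidase reporter signal from transgenic T. cruzi replicating inside host cells; inhibitors lower the luminescence signal.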 It counts as functional, cell-based.
Test [6] is described as follows: NIH3T3 cell viability loss – ATP luminescence, mouse fibroblasts, counter-screen, dose response (AID 2010).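 Further: cells exposed to compound for about 90 hours before reading.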 It counts as functional, cell-based.
For test [7], the target named is T2, Heat shock factor protein 1 (Mus musculus, UniProt P38532).
T2 sequence (P38532 whole entry): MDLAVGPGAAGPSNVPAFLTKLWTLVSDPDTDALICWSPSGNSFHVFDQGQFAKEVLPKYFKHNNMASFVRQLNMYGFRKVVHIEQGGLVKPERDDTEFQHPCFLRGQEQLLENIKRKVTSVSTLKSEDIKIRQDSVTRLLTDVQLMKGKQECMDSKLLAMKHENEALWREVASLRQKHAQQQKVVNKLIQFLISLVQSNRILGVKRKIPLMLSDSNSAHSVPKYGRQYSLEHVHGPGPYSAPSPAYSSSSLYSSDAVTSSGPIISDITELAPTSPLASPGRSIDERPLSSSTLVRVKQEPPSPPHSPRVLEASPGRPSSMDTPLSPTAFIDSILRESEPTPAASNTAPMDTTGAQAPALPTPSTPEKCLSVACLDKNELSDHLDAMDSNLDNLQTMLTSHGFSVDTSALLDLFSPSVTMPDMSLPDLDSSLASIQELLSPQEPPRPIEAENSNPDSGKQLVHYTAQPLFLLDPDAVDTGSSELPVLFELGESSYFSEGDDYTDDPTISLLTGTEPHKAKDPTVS
The test can be described thus: decrease of HSF1-responsive luciferase luminescence – cell-based, NIH3T3, dose retest, confirmation (AID 2382).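 Further: NIH3T3 fibroblasts with HSF1-driven luciferase reporter stressed by proteasome inhibitor MG132; luminescence from HSF1-driven luciferase expression after 8 hours of MG132 stress.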 It counts as functional.

The target in test [8] is T2, Heat shock factor protein 1. The test can be described thus: enhancement of HSF1-driven luciferase signal – cell-based, NIH3T3, luminescence, dose retest, confirmation (AID 435004).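 Further: stress induced by proteasome inhibitor MG132 added 30 min after compound; luciferase reporter driven by HSF1 response element in NIH3T3 cells; actives raise luminescence as potentiators of the MG132 stress response.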 It counts as functional.
Test [9] deals with T3, Cytochrome P450 1A2 (Homo sapiens, UniProt P05177).
T3 sequence (P05177 whole entry): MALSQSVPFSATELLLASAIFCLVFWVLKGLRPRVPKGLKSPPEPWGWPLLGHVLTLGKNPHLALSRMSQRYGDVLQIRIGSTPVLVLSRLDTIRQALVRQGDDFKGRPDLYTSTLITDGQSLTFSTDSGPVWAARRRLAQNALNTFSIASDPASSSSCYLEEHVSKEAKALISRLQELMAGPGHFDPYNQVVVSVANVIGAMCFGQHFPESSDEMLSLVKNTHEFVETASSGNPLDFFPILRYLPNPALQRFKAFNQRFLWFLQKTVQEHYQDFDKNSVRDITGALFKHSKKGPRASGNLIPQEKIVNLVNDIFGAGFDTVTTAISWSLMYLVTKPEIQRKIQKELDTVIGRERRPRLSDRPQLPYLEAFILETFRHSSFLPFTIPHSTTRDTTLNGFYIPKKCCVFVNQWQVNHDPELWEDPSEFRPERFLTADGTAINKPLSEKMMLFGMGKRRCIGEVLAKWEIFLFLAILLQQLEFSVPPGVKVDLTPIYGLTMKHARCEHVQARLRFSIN

Activity calls are given as the source filed them. For most assays here, no stated cut-off is given here; in the data, actives have a measured EC50 and inactives only a lower limit.

For the compound `O=C(Nc1ccc(C(=O)NCc2ccc(F)cc2)cc1)C1=CSCCO1`, the EC50 in test [1], in test [2] and in test [3] was > 150 µM (not active) each time.
In the case of `Cc1cc(C)c(OCC(=O)N2CCN(c3ncc(C(F)(F)F)cc3Cl)CC2)c(C)c1`, the concentration for a half-maximal effect (EC50) was 7.69 µM (active) in test [1], 12.8 µM (active) in test [2] and 23.8 µM (active) in [3].
For `CC(C)(C)NC(=O)C1CC2CCCCC2CN1` (stereo unspecified) the same measures were > 150 µM (not active), > 150 µM (not active) and > 150 µM (not active).
In the case of `CCN(CC)CCSc1nnc2c3ccccc3n(Cc3ccccc3)c2n1`, the AC50 in test [4] is 0.829 µM (active). Moreover, the half-maximal effective concentration (EC50) in test [5] was 0.284 µM (active); in [6] it was > 60 µM (not active).
With `Nc1nc(CSC(=S)N2CCCCC2)nc(Nc2ccccc2)n1`, in test [7], the EC50 is on record as > 195 µM (not active).
Still for that read-out and setting: the value for `CSc1cccc(NS(=O)(=O)c2cc(Br)cnc2N)c1` was > 195 µM (not active).
In the case of `O=C(Nc1nc2ccccc2n1CCOc1ccccc1)c1ccco1`, the EC50 in test [1] was > 150 µM (not active); in test [2] it was 4.16 µM (active); in test [3], 9.64 µM (active).
For `N#Cc1ccc(C(=O)Nc2nc(SCc3ccc(Cl)cc3)n[nH]2)cc1` the same measures were > 150 µM (not active), 1.97 µM (active) and > 150 µM (not active).
With `O=C(CN1CCCC1)Nc1c2c(cc3c1CCC3)CCC2`, the EC50 in test [7] is given as > 195 µM (not active).
As for `O=[N+]([O-])c1cc(C(F)(F)F)ccc1NCCc1c[nH]c2ccccc12`, the AC50 in test [4] is 4.48 µM (active).
As for `CC(=O)N1c2ccc(C)cc2C(c2ccccc2)CC1C` (stereo unspecified), the EC50 in [8] is > 260 µM (inactive).
In the case of `CCS(=O)(=O)N1Cc2ccccc2CC1C(=O)Nc1nnc(SCc2ccc(C#N)cc2)s1` (stereo unspecified), the EC50 is > 150 µM (not active) in test [1], 16.1 µM (active) in [2] and 94.3 µM (active) in test [3].
For `Cc1ccc(C2=Nc3ccccc3NC(C)(c3ccc(C)o3)C2)o1` (stereo unspecified), in test [8], the EC50 is > 260 µM (inactive).
On to `Cc1ccc(-c2nc(-c3cccnc3)sc2CC(=O)Nc2ccc3nc(C)sc3c2)cc1`, for which, in test [7], the EC50 is listed as > 195 µM (not active).
On the same count and under the same terms, for `Cc1ccccc1C(=O)NC[C@@H]1CCCN2CCCC[C@H]12` the value was 18.6 µM (active); for `C=CCNc1cc(C)oc(=O)c1C(=O)CCC`, > 195 µM (not active).
On to `COc1cccc(-c2cc3nc4c(c(N5CCC6(CC5)OCCO6)n3n2)CCCC4)c1`, for which the half-maximal activity concentration (AC50) in [4] is 4.89 µM (active).
`CC(C)Nc1nc(Oc2cccc(Cl)c2Cl)cc(C(F)(F)F)n1`: the values for the EC50 in [1], in [2] and in test [3] were > 150 µM (not active), 6.13 µM (active) and 8.83 µM (active), respectively.
In the case of `O=C(NCC1(N2CCCCC2)CCCCC1)c1cccc(NS(=O)(=O)c2ccccc2)c1`, the EC50 in test [1], in test [2] and in test [3] was > 150 µM (not active) in each case.
As to `CCOC(=O)C1=CN(Cc2ccc(OC)cc2)C=C(C(=O)OCC)C1c1cccs1`, the EC50 in [8] was > 260 µM (inactive).
Same read-out and setting: the value for `CC(C)(C)c1ccc(OCC(=O)NN2Cc3ccccc3C2=N)cc1` was > 260 µM (inactive).
For `CCN1C(=O)C(CC(=O)Nc2ccc(OC)cc2)N(CCCN2CCN(c3ccc(F)cc3)CC2)C1=S` (stereo unspecified), the AC50 in test [4] is 5.53 µM (active).
With `COC1CCCN(C(=O)c2ccc(OC3CCN(CCc4ccccc4)CC3)cc2)C1` (stereo unspecified), the EC50 in test [7] is > 195 µM (not active).
Regarding `CCC(C)c1ccc(OCc2ccc(C(=O)O)o2)cc1` (stereo unspecified), the EC50 in test [7] is 18.7 µM (inconclusive).
As to `Nc1ccc(S(=O)(=O)N2CCC(Cc3ccccc3)CC2)cc1`, the EC50 in test [7] was > 195 µM (not active).
Regarding `COc1cccc(N=Nc2c(N)nn3c(O)cc(-c4ccccc4)nc23)c1`, the EC50 in test [1] is > 150 µM (not active); in test [2] it was 2.27 µM (active); in test [3] it was 31.3 µM (active).
With `CC1CCN(CC(=O)c2cccs2)CC1`, the EC50 in test [7] is on record as > 195 µM (not active).
Same read-out and setting: the value for `CN(C(=O)CN1C(=O)S/C(=C\c2ccccc2)C1=O)C1CCS(=O)(=O)C1` (stereo unspecified) was > 195 µM (not active).
For `Cc1cc(/C=C2\SC(=S)N(Cc3ccco3)C2=O)c(C)n1-c1ccccc1`, in test [4], the AC50 was 2.2 µM (active). The EC50 in [7] was 1.57 µM (active).
On to `O=C(CSC(=S)N1CCCCC1)Nc1ncc2c(n1)CCCC2=O`, for which, in test [7], the EC50 is listed as > 195 µM (not active).
Take `CC(NNc1ccccc1)=C1C(=O)N(C)C(=O)N(C)C1=O`: the AC50 in [4] is 1.81 µM (active).
In the case of `O=C1c2ccccc2C(Nc2ccc3c(c2)OCCO3)N1c1ccc(Cl)cn1` (stereo unspecified), in test [7], the EC50 is > 195 µM (not active).
As for `O=C(NNc1ccccc1)C(=O)N1CCCCC1`, in [4], the AC50 is 1.03 µM (active).
On to `O=S(=O)(NCCSCc1c(Cl)cccc1Cl)c1ccc2c(c1)OCCO2`, for which the values for the EC50 in [1], in [2] and in test [3] were > 150 µM (not active), 11.6 µM (active) and 24.5 µM (active), respectively.
For the compound `Cc1ccc(NC(=S)Nc2cccc3ccccc23)cc1`, in test [7], the EC50 was > 195 µM (not active).
On the same count and under the same terms, for `CCOC(=O)Cn1c(=O)oc2cc(S(=O)(=O)NCCC(C)C)ccc21` the value was > 195 µM (not active).
`COc1cccc(C(=O)Nc2ccc3c(C)cc(=O)oc3c2)c1`: the EC50 in [8] was > 260 µM (inactive).
Consider `CCN(c1ccc(NC(=O)CCc2nc(O)c3c4c(sc3n2)CCCC4)cc1)C(C)C`, for which the AC50 in test [4] is 4.71 µM (active).
The same measure, in the same setting: the value for `CCCC/C(C)=C/[C@@H](NP(=O)(c1ccccc1)c1ccccc1)c1ccccc1` was 6.1 µM (active).
For `CC(C)Cc1nnc(NC(=O)CCC(=O)N2CCN(c3ccccc3)CC2)s1`, the EC50 in test [1], in [2] and in test [3] was > 150 µM (not active) in each case.
For `CCCCCCSc1cccc(-c2nc3cc(C)ccn3c2NC2CCCCC2)c1`, the AC50 in [4] was 4.23 µM (active).
With `CC1CCCN(C(=O)c2ccccc2OC2CCN(S(C)(=O)=O)CC2)C1` (stereo unspecified), the EC50 in test [8] is > 260 µM (inactive).
Same read-out and setting: for `COc1cccc(-c2c(C(=O)N/N=C(\C)c3ccc(Cl)s3)nnn2-c2nonc2N)c1` the value was 51.8 µM (active).
Turning to `O=c1c(/C=N\NS(=O)(=O)c2ccccc2)coc2ccc(Cl)cc12`, the 50% effective concentration (EC50) in test [7] was 44.5 µM (active).
As for `Cc1ccc(C)c(S(=O)(=O)c2c(N)n(/N=C/c3ccco3)c3nc4ccccc4nc23)c1`, the EC50 in test [8] is > 260 µM (inactive).
Take `COc1cc(/C=N/N2CCN(Cc3ccccc3)CC2)cc(OC)c1OC(C)=O`: in test [7], the EC50 is reported as > 195 µM (not active).
Take `CCCCC/C=C\C/C=C\C/C=C\C/C=C\CCCC(=O)Nc1ccc(O)cc1`: the 50% effective concentration (EC50) in test [1] is > 150 µM (inconclusive); in [2] it was 0.827 µM (active); in test [3] it was 3.32 µM (active). The AC50 in test [9] was 20 µM (inconclusive).
For the compound `NS(=O)(=O)c1cc2c(cc1Cl)NCNS2(=O)=O` [HYDROCHLOROTHIAZIDE], the EC50 in [7] is > 195 µM (not active).
